Assay [1] addresses T1, SBP domain of LMRG_02270 (GlnPQ SBP; GlnP) (Listeria monocytogenes, UniProt A0A0H3GES4).
T1 construct: SBP domain only (residues 29-254), signal peptide (first 28 residues) and transmembrane domain removed; N-terminal His-tag (pET-19b), codon-optimised synthetic gene; E. coli BL21-Gold (DE3); locus also printed as LMRG_02770 (apparent misprint)
In words: isothermal titration calorimetry. It is filed as binding. In general terms: ITC needs no label: the signal is the heat of the interaction.

The next assay has as its target T2, GlnPQ (Listeria monocytogenes, UniProt A0A0H3GES4).
T2 construct: gene LMRG_02270; native full-length ABC importer in L. monocytogenes cells; uptake compared with glnPQ deletion and complemented strains; glnP locus also printed as LMRG_02770 (apparent misprint)
In words: radiolabelled uptake by intact bacteria, rapid filtration. Type of assay: cell-based. Conditions: PBS pH 7.4, 1.6 mM MgSO4, 1% glucose, 37 °C; labelled compound; mixed with unlabelled L-glutamine.

This passage reports Kd and L-glutamine uptake results from article PMC5289647, “L-glutamine Induces Expression of Listeria monocytogenes Virulence Genes” (PLoS Pathogens, 2017).

In general, Kd refers to the concentration at which binding is half-saturated.

T1 sequence (A0A0H3GES4 entry or part of it): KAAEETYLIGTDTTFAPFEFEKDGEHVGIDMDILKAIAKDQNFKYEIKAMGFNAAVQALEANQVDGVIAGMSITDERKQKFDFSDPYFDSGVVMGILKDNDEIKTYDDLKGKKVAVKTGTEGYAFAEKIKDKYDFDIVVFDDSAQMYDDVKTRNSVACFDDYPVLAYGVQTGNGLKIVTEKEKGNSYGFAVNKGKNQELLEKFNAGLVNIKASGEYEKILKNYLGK
T2 sequence (A0A0H3GES4 entry or part of it): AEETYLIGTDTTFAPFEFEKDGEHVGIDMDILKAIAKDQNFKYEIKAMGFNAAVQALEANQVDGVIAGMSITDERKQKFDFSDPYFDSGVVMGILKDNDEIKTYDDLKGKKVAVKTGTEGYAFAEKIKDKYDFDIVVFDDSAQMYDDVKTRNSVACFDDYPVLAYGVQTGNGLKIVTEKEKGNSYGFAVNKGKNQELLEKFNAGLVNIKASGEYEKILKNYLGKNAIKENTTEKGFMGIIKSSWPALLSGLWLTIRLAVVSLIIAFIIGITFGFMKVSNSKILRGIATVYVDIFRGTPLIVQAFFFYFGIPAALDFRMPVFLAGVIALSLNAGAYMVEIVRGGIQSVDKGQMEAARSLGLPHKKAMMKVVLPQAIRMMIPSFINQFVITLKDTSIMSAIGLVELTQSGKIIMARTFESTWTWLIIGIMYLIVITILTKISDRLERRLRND
T2 sequence (A0A0H3GF44 entry or part of it, further chain): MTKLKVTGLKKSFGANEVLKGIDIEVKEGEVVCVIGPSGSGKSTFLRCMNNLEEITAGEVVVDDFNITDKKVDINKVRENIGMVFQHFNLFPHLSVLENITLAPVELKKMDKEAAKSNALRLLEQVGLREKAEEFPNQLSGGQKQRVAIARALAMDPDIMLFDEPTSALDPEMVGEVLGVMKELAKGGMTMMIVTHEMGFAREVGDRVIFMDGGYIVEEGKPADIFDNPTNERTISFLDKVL

In the case of `NC(=O)CC[C@H](N)C(=O)O` [L-glutamine], the Kd in assay [1] was determined as 4.7 µM.
On to `NC(=O)CC[C@H](N)C(=O)O` [3H L-glutamine], for which, on GlnPQ, the L-glutamine uptake entry is listed as “the rapid uptake of L-glutamine measured in the transport experiments is indeed mediated by an active”.
